The record followed here is patent publication US8921389B2, “Naphthyridine derivatives as inhibitors of hypoxia inducible factor (HIF) hydroxylase” (Fibrogen, Inc., priority 2011, dated 2014).

Molecules are shown by their SMILES.

For the test, the target named is HIF-PH2 (EGLN1) (Homo sapiens (Human), UniProt Q9GZT9). Kind of test: HIF-PH assay (14CO2 capture, peptide-dependent turnover). The test is classed as biochemical. To be noted: enzyme inhibition against HIF-PH2; peptide-dependent percent turnover. The source says: Ketoglutaric acid α-[1-^14C]-sodium salt, alpha-ketoglutaric acid sodium salt, and HPLC purified peptide may be obtained from commercial sources, e.g., Perkin-Elmer (Wellesley Mass.), Sigma-Aldrich, and SynPep Corp. (Dublin Calif.), respectively. […] For example, a HIF peptide for use in the HIF-PH assay is [methoxycoumarin]-[…]-amide. HIF-PH, e.g., HIF-PH2 (EGLN1), can be expressed in, e.g., insect Hi5 cells, and partially purified, e.g., through a SP ion exchange chromatography column. […] Reactions are initiated by addition of HIF-PH enzyme.
HIF-PH2 (EGLN1), sequence (Q9GZT9 whole entry): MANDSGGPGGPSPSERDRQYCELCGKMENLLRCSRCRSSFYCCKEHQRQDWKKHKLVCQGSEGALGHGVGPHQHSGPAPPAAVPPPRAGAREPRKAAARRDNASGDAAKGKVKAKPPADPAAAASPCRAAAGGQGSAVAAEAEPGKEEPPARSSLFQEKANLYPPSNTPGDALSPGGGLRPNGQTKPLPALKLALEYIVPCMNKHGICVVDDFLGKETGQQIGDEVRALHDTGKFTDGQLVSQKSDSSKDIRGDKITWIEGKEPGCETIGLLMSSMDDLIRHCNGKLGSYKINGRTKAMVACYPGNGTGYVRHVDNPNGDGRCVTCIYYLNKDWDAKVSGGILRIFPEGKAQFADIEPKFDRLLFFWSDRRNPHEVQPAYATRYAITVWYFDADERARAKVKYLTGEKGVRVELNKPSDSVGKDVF
The peptide-dependent percent turnover is calculated by subtracting percent turnover in the absence of peptide from percent turnover in the presence of substrate peptide. Percent inhibition and IC50 are calculated using peptide-dependent percent turnover at given inhibitor concentrations. Calculation of IC50 values for each inhibitor is conducted using GraFit software (Erithacus Software Ltd., Surrey UK).
Representative compounds of the disclosure were analyzed using the HIF-PH assay described above.
In the case of `N#Cc1nc(C(=O)NCCCCC(=O)O)c(O)c2cc(-c3ccccc3)c(=O)n(Cc3ccccc3)c12` [Example 24, 5-[(1-Benzyl-8-cyano-5-hydroxy-2-oxo-3-phenyl-1,2-dihydro-[1,7]naphthyridine-6-carbonyl)-amino]-pentanoic acid], the IC50 is more than 200 µM.

`CNC(=O)c1nc(C#N)c2c(=O)n(Cc3ccccc3)ccc2c1O` [Example 38, 7-Benzyl-1-cyano-4-hydroxy-8-oxo-7,8-dihydro-[2,7]naphthyridine-3-carboxylic acid methylamide] had an IC50 of more than 200 µM.

As for `N#Cc1nc(C(=O)NC2CC2)c(O)c2ccn(Cc3ccccc3)c(=O)c12` [Example 39, 7-Benzyl-1-cyano-4-hydroxy-8-oxo-7,8-dihydro-[2,7]naphthyridine-3-carboxylic acid cyclopropylamide], the IC50 is more than 200 µM.

On to `CNC(=O)c1nc(C#N)c2c(cc(-c3ccccc3)c(=O)n2Cc2ccccc2)c1O` [Example 41, 1-Benzyl-8-cyano-5-hydroxy-2-oxo-3-phenyl-1,2-dihydro-[1,7]naphthyridine-6-carboxylic acid methylamide], for which the IC50 was more than 200 µM.

Compound `N#Cc1nc(C(=O)NCc2ccncc2)c(O)c2ccn(Cc3ccccc3)c(=O)c12` [Example 48, 7-Benzyl-1-cyano-4-hydroxy-8-oxo-7,8-dihydro-[2,7]naphthyridine-3-carboxylic acid (pyridin-4-ylmethyl)-amide] registered an IC50 of 195 µM.

Regarding `CC(C)(CNC(=O)c1nc(C#N)c2c(=O)n(Cc3ccccc3)ccc2c1O)C(=O)O` [Example 50, 3-[(7-Benzyl-1-cyano-4-hydroxy-8-oxo-7,8-dihydro-[2,7]naphthyridine-3-carbonyl)-amino]-2,2-dimethyl-propionic acid], the half-inhibitory concentration (IC50) is more than 200 µM.

Take `N#Cc1nc(C(=O)N[C@H](Cc2ccccc2)C(=O)O)c(O)c2ccn(Cc3ccccc3)c(=O)c12` [Example 51, (R)-2-[(7-Benzyl-1-cyano-4-hydroxy-8-oxo-7,8-dihydro-[2,7]naphthyridine-3-carbonyl)-amino]-3-phenyl-propionic acid]: the IC50 was more than 200 µM.

In turn, `N#Cc1nc(C(=O)NCCCCC(=O)O)c(O)c2ccn(Cc3ccccc3)c(=O)c12` [Example 52, 5-[(7-Benzyl-1-cyano-4-hydroxy-8-oxo-7,8-dihydro-[2,7]naphthyridine-3-carbonyl)-amino]-pentanoic acid] had a 50% inhibitory concentration (IC50) of more than 200 µM.

For `O=C(O)CCNC(=O)c1ncc2ccn(Cc3ccccc3)c(=O)c2c1O` [Example 54, 3-[(6-Benzyl-4-hydroxy-5-oxo-5,6-dihydro-[2,6]naphthyridine-3-carbonyl)-amino]-propionic acid], the IC50 was 181 µM.

In turn, `N#Cc1nc(C(=O)N[C@@H](Cc2ccccc2)C(=O)O)c(O)c2ccn(Cc3ccccc3)c(=O)c12` [Example 56, (S)-2-[(7-Benzyl-1-cyano-4-hydroxy-8-oxo-7,8-dihydro-[2,7]naphthyridine-3-carbonyl)-amino]-3-phenyl-propionic acid] returned an IC50 of more than 200 µM.

On to `N#Cc1nc(C(=O)NCCN2CCOCC2)c(O)c2ccn(Cc3ccccc3)c(=O)c12` [Example 59, 7-Benzyl-1-cyano-4-hydroxy-8-oxo-7,8-dihydro-[2,7]naphthyridine-3-carboxylic acid (2-morpholin-4-yl-ethyl)-amide], for which the IC50 was more than 200 µM.

In turn, `N#Cc1nc(C(=O)NCc2ccnnc2)c(O)c2ccn(Cc3ccccc3)c(=O)c12` [Example 60, 7-Benzyl-1-cyano-4-hydroxy-8-oxo-7,8-dihydro-[2,7]naphthyridine-3-carboxylic acid (pyridazin-4-ylmethyl)-amide] gave a half-inhibitory concentration (IC50) of 177 µM.

For the compound `N#Cc1nc(C(=O)NCC2(C(=O)O)CCC2)c(O)c2ccn(Cc3ccccc3)c(=O)c12` [Example 62, 1-{[(7-Benzyl-1-cyano-4-hydroxy-8-oxo-7,8-dihydro-[2,7]naphthyridine-3-carbonyl)-amino]-methyl}-cyclobutanecarboxylic acid], it took 182 µM to reach half-maximal inhibition (IC50).

Turning to `O=C(O)CCNC(=O)c1ncc2ccc(=O)n(Cc3ccccc3)c2c1O` [Example 70, 3-[(1-Benzyl-8-hydroxy-2-oxo-1,2-dihydro-[1,6]naphthyridine-7-carbonyl)-amino]-propionic acid], the IC50 stood at 167 µM.

`CC(C)(CNC(=O)c1ncc2ccc(=O)n(Cc3ccccc3)c2c1O)C(=O)O` [Example 71, 3-[(1-Benzyl-8-hydroxy-2-oxo-1,2-dihydro-[1,6]naphthyridine-7-carbonyl)-amino]-2,2-dimethyl-propionic acid]: the IC50 was more than 200 µM.

Compound `CCCNC(=O)CCCNC(=O)c1nc(C#N)c2c(=O)n(Cc3ccccc3)ccc2c1O` [Example 73, 7-Benzyl-1-cyano-4-hydroxy-8-oxo-7,8-dihydro-[2,7]naphthyridine-3-carboxylic acid (3-propylcarbamoyl-propyl)-amide] registered an IC50 of more than 200 µM.

In turn, `CNC(=O)c1ncc2ccc(=O)n(Cc3ccccc3)c2c1O` [Example 75, 1-Benzyl-8-hydroxy-2-oxo-1,2-dihydro-[1,6]naphthyridine-7-carboxylic acid methylamide] showed an IC50 of more than 200 µM.

`COc1ccc(Cn2ccc3c(O)c(C(=O)NCCc4ccccc4)ncc3c2=O)c(OC)c1` [Example 76, 7-(2,4-Dimethoxy-benzyl)-4-hydroxy-8-oxo-7,8-dihydro-[2,7]naphthyridine-3-carboxylic acid phenethyl-amide] returned an IC50 of more than 200 µM.

For `COc1ccc(Cn2ccc3c(O)c(C(=O)NCc4ccc(F)cc4)ncc3c2=O)c(OC)c1` [Example 78, 7-(2,4-Dimethoxy-benzyl)-4-hydroxy-8-oxo-7,8-dihydro-[2,7]naphthyridine-3-carboxylic acid 4-fluoro-benzylamide], the IC50 was more than 200 µM.

As for `CNC(=O)c1nc(C#N)c2ccc(=O)n(Cc3ccccc3)c2c1O` [Example 79, 1-Benzyl-5-cyano-8-hydroxy-2-oxo-1,2-dihydro-[1,6]naphthyridine-7-carboxylic acid methylamide], the IC50 was more than 200 µM.

Consider `O=C(NCc1nnn[nH]1)c1ncc2ccc(=O)n(Cc3ccccc3)c2c1O` [Example 82, 1-Benzyl-8-hydroxy-2-oxo-1,2-dihydro-[1,6]naphthyridine-7-carboxylic acid (1H-tetrazol-5-ylmethyl)-amide], for which the IC50 was determined as 138 µM.

In turn, `CC(C)(CNC(=O)c1nc(-c2cncc(F)c2)c2c(=O)n(Cc3ccccc3)ccc2c1O)C(=O)O` [Example 88, 3-{[7-Benzyl-1-(5-fluoro-pyridin-3-yl)-4-hydroxy-8-oxo-7,8-dihydro-[2,7]naphthyridine-3-carbonyl]-amino}-2,2-dimethyl-propionic acid] yielded an IC50 of more than 200 µM.

`CC(C)NC(=O)NCCNC(=O)c1ncc2c(=O)n(Cc3ccccc3)ccc2c1O` [Example 89, 7-Benzyl-4-hydroxy-8-oxo-7,8-dihydro-[2,7]naphthyridine-3-carboxylic acid [2-(3-isopropyl-ureido)-ethyl]-amide] had a half-inhibitory concentration (IC50) of more than 200 µM.

`CC(=O)NCCNC(=O)c1nc(C#N)c2ccc(=O)n(Cc3ccccc3)c2c1O` [Example 95, 1-Benzyl-5-cyano-8-hydroxy-2-oxo-1,2-dihydro-[1,6]naphthyridine-7-carboxylic acid (2-acetylamino-ethyl)-amide] yielded an IC50 of 134 µM.

For the compound `CC(=O)NCCNC(=O)c1ncc2ccc(=O)n(Cc3ccccc3)c2c1O` [Example 96, 1-Benzyl-8-hydroxy-2-oxo-1,2-dihydro-[1,6]naphthyridine-7-carboxylic acid (2-acetylamino-ethyl)-amide], the concentration for half-maximal inhibition (IC50) turned out to be 137 µM.

Compound `CN(CCNC(=O)c1ncc2ccc(=O)n(Cc3ccccc3)c2c1O)S(C)(=O)=O` [Example 105, 1-Benzyl-8-hydroxy-2-oxo-1,2-dihydro-[1,6]naphthyridine-7-carboxylic acid [2-(methanesulfonyl-methyl-amino)-ethyl]amide] returned an IC50 of more than 200 µM.

Regarding `N#Cc1nc(C(=O)NCCS(N)(=O)=O)c(O)c2c1ccc(=O)n2Cc1ccccc1` [Example 106, 1-Benzyl-5-cyano-8-hydroxy-2-oxo-1,2-dihydro-[1,6]naphthyridine-7-carboxylic acid (2-sulfamoyl-ethyl)-amide], the IC50 was more than 200 µM.

`O=C(NCCNC(=O)C(F)(F)F)c1ncc2c(cc(-c3ccccc3)c(=O)n2Cc2ccccc2)c1O` [Example 109, 1-Benzyl-5-hydroxy-2-oxo-3-phenyl-1,2-dihydro-[1,7]naphthyridine-6-carboxylic acid [2-(2,2,2-trifluoro-acetylamino)-ethyl]-amide] showed an IC50 of more than 200 µM.

The compound `CCNC(=O)NCCNC(=O)c1ncc2c(cc(-c3ccccc3)c(=O)n2Cc2ccccc2)c1O` [Example 110, 1-Benzyl-5-hydroxy-2-oxo-3-phenyl-1,2-dihydro-[1,7]naphthyridine-6-carboxylic acid [2-(3-ethyl-ureido)-ethyl]-amide] returned an IC50 of 200 µM.

For the compound `CS(=O)(=O)NCCNC(=O)c1ncc2ccc(=O)n(Cc3ccccc3)c2c1O` [Example 111, 1-Benzyl-8-hydroxy-2-oxo-1,2-dihydro-[1,6]naphthyridine-7-carboxylic acid (2-methanesulfonylamino-ethyl)-amide], the IC50 is more than 200 µM.

In turn, `Cc1nc(C(=O)NCCC(=O)O)c(O)c2c1ccc(=O)n2Cc1ccccc1` [Example 112, 3-[(1-Benzyl-8-hydroxy-5-methyl-2-oxo-1,2-dihydro-[1,6]naphthyridine-7-carbonyl)-amino]-propionic acid] yielded an IC50 of more than 200 µM.
